Entries after “also recorded” stand apart in the source; their conditions may differ.
What was measured:
Assay type in all cases: physicochemical
[1] = Interconversion at high temperature (final form identified by DSC); settings: for Final form (DSC peak): dried at 80±5° C. in non-vacuum state, then cooled to 30±5° C., methanesulfonate; for Stability at high temperature: summary of Table 5
Description: 2) Measurement of Interconversion at High Temperature
In order to determine the interconversion of crystalline forms at a high temperature, each of Crystalline Forms 1 and 5 was dried at 80±5° C. in non-vacuum state, and then cooled to a temperature of 30±5° C. DSC analysis was performed for the obtained samples to identify the final crystalline form.

[2] = Solubility in methanol solvent; settings: in the methanol solvent; methanesulfonate
Description: The solubility of each of Crystalline Forms 1 and 5 of the present invention was measured after being dissolved in the methanol solvent.

[3] = Stability in solvent slurry system (interconversion of crystalline forms, final form identified by DSC); settings: Dimethyl acetamide: EA, solvent 3 vol, anti-solvent 20 vol
[4] = Stability under physical stimulus (multi-milling, manual grinding, humidification; final form identified by DSC); settings: methanesulfonate; for Stability under physical stimulus: milling, grinding and humidification (summary of Table 6)
Description: 3) Measurement of Stability Under Physical Stimulus
Multi-milling, manual grinding and humidification test were performed for the crystalline forms of the present invention to confirm their stability under physical stimulus. For multi-milling test, each of Crystalline Forms 1 and 5 was milled at 3,000 rpm by using a prototype multi-mill instrument (Sreenex Machines Pvt. Ltd.). For manual grinding, each of the crystalline forms was gradually ground by using a pestle and mortar. In the humidification test, Crystalline Forms 1 and 5 were stored at 30° C. and 90% RH for 24 hours.
DSC analysis was performed for the crystalline forms obtained from the tests to identify the final crystalline form.

[5] = Stability in solvent slurry system (interconversion of crystalline forms, final form identified by DSC); settings: for Final form (DSC peak): slurry; for Interconversion of crystalline form while stirred in solvent: stirred in the solvent for 24 hours, various solvents (summary of Table 4)
Description: 1) Measurement of Stability in Solvent Slurry System
In order to determine whether one crystalline form is interconverted into another crystalline form in a stirred solvent, a slurry test was performed in different solvents at room temperature.
First, an automated polyblock reactor was filled with each of the solvents listed in Table 4 below at room temperature (30±5° C.). […] Thereafter, an anti-solvent listed in Table 4 below (n-butanol or IPA) was added into the reactor for 30±15 minutes and stirred for 30±15 minutes until a transparent solution was obtained. The resultant was cooled to a temperature of 0±5° C., stirred for 2-3 hours, and then filtered at 0±5° C. The obtained material was dried at 60±5° C. for 3 to 4 hours in VTD, and then DSC analysis was performed for the obtained sample to identify the final crystalline form.
DSC analysis was performed for the obtained sample to identify the final crystalline form.

[6] = Methanol: IPA, solvent 7 vol, anti-solvent 20 vol, methanesulfonate
[7] = Methanol: n-butanol, solvent 7 vol, anti-solvent 20 vol, methanesulfonate
[8] = solvent system Acetonitrile 10 vol, no anti-solvent, methanesulfonate
[9] = solvent system Isopropyl alcohol (IPA) 10 vol, no anti-solvent, methanesulfonate

Row | Structure (SMILES) | Final form (DSC peak) [1] | Stability at high temperature [1] | solubility [2] [mg/mL] | Final form (DSC peak) [3] | Stability under physical stimulus [4] | Final form (DSC peak) [5, 6] | Final form (DSC peak) [5, 7] | Final form (DSC peak) [5, 8] | Final form (DSC peak) ([5]; solvent system Ethyl acetate (EA) 10 vol, no anti-solvent) | Final form (DSC peak) ([5]; solvent system Heptane 10 vol, no anti-solvent) | Final form (DSC peak) [5, 9] | Final form (DSC peak) ([5]; solvent system Methyl tert-butyl ether (MTBE) 10 vol, no anti-solvent) | Final form (DSC peak) ([5]; solvent system n-butanol 10 vol, no anti-solvent) | Interconversion of crystalline form while stirred in solvent ([5]; methanesulfonate) | Final form ([4]; Humidification, stored at 30° C. and 90% RH for 24 hours) | Final form ([4]; Manual grinding with pestle and mortar) | Final form ([4]; Multi-milling at 3,000 rpm) | Final form (DSC peak) ([5]; solvent system Hexane 10 vol, no anti-solvent)
1 | O=C(NC[C@H]1CN(c2ccc(N3CCNC=N3)cc2)C(=O)O1)c1ccc(Cl)s1 [Crystalline Form 5, 5-chloro-N-({(5S)-2-oxo-3-[4-(5,6-dihydro-4H-[1,2,4]triazin-1-yl)phenyl]-1,3-oxazolidin-5-yl}methyl)thiophene-2-carboxamide methanesulfonate] | Crystalline Form 5 (187.0) | stable at high temperature | 30 | Crystalline Form 5 (187.05) | stability without change of crystalline forms; also recorded: stable under physical stimulus | Crystalline Form 5 (186.80) | Crystalline Form 5 (186.27) | Crystalline Form 5 (186.88) | Crystalline Form 5 (186.48) | Crystalline Form 5 (186.44) | Crystalline Form 5 (186.33) | Crystalline Form 5 (186.45) | Crystalline Form 5 (186.76) | maintains the initial form |  |  |  | 
2 | O=C(NC[C@H]1CN(c2ccc(N3CCNC=N3)cc2)C(=O)O1)c1ccc(Cl)s1 [Crystalline Form 1, 5-chloro-N-({(5S)-2-oxo-3-[4-(5,6-dihydro-4H-[1,2,4]triazin-1-yl)phenyl]-1,3-oxazolidin-5-yl}methyl)thiophene-2-carboxamide methanesulfonate] | Crystalline Form 1 (178.0) | stable at high temperature | 70 |  | stability without change of crystalline forms; also recorded: stable under physical stimulus | Mixed crystalline forms | Crystalline Form 5 (187.7) | Mixed crystalline forms |  |  | Crystalline Form 5 (187.0) |  |  | tends to convert into Crystalline Form 5 | Crystalline Form 1 | Crystalline Form 1 | Crystalline Form 1 | Mixed crystalline forms
